According to patent US12404295B2, “(Hetero)aryl-methyl-thio-beta-D-galactopyranoside derivatives” (Idorsia Pharmaceuticals Ltd, priority 2019, dated 2025):
Like-named read-outs stand apart in the source and are kept apart here.

Experiments:
[1] = molecular target: human Gal-3 (hGal-3) (Homo sapiens (Human), UniProt P17931); assay: competitive binding assay: biotinylated hGal-3 binding to microplate-adsorbed asialofetuin (ASF)
Method in brief: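 Peroxidase activity developed with ABTS measures the biotinylated hGal-3 remaining on the asialofetuin-coated surface after competition with test compounds. Incubation ran 3 h at 4 °C, followed by 1 h with streptavidin-peroxidase at 80 ng/mL.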

[2] = molecular target: human Gal-1 (hGal-1) (Homo sapiens (Human), UniProt P09382); assay: competitive binding assay: biotinylated hGal-1 binding to microplate-adsorbed asialofetuin (ASF); conditions: Table 15; read-out: IC50 (Galectin-1 inhibition)
human Gal-1 (hGal-1), sequence (P09382 whole entry): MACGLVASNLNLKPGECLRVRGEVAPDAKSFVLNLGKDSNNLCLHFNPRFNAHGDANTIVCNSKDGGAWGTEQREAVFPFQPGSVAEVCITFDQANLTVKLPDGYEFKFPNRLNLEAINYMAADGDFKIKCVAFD
Method in brief: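 Biotinylated human Gal-1 (300-1000 ng/mL) competes with serially diluted compound for binding to ASF-coated plates, 3 h at 4° C. Bound protein detected with streptavidin-peroxidase and ABTS substrate (spectrophotometric). IC50 given as mean of several measurements.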

[3] = Table 9, 2-OMe-Gal inhibitors, read-out: IC50 (Gal-3 inhibition)
[4] = Gal-3 inhibition, binding of biotinylated hGal-3 to ASF, mean values, read-out: IC50
[5] = Table 10, 2-OMe-Gal inhibitors, read-out: IC50 (Gal-3 inhibition)

human Gal-3 (hGal-3), sequence (P17931 whole entry): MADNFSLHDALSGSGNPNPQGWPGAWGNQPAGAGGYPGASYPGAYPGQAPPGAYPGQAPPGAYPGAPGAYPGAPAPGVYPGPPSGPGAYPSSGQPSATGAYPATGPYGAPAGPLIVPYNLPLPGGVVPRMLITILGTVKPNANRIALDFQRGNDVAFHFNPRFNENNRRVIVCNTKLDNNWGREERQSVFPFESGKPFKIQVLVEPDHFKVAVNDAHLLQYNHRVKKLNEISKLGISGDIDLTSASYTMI

| SMILES | IC50 [1, 3] [nM] | IC50 [2] [nM] | IC50 [1, 4] [nM] | IC50 [1, 5] [nM] |
| --- | --- | --- | --- | --- |
| CO[C@@H]1[C@@H](n2cc(-c3cc(F)c(F)c(F)c3)nn2)[C@@H](O)[C@@H](CO)O[C@H]1S[C@H](c1ncccc1C)C1(O)CCC(F)(F)CC1 [Example 2.44.126R.I., (2R,3R,4S,5R,6S)-6-(((R)-(4,4-Difluoro-1-hydroxycyclohexyl)(3-methylpyridin-2-yl)methyl)thio)-2-(hydroxymethyl)-5-methoxy-4-(4-(3,4,5-trifluorophenyl)-1H-1,2,3-triazol-1-yl)tetrahydro-2H-pyran-3-ol] | 70 | 680 | – | – |
| CCO[C@@H]1[C@@H](n2cc(-c3cc(F)c(F)c(F)c3)nn2)[C@@H](O)[C@@H](CO)O[C@H]1S[C@H](c1ncccc1C)C1(O)CCC(F)(F)CC1 [Example 2.44.126R.II., (2R,3R,4S,5R,6S)-6-(((R)-(4,4-Difluoro-1-hydroxycyclohexyl)(3-methylpyridin-2-yl)methyl)thio)-5-ethoxy-2-(hydroxymethyl)-4-(4-(3,4,5-trifluorophenyl)-1H-1,2,3-triazol-1-yl)tetrahydro-2H-pyran-3-ol] | – | 870 | 110 | – |
| CO[C@@H]1[C@@H](n2cc(-c3cc(F)c(F)c(F)c3)nn2)[C@@H](O)[C@@H](CO)O[C@H]1S[C@H](c1nccnc1C)C1(O)CCC(F)(F)CC1 [Example 2.44.129R.I., (2R,3R,4S,5R,6S)-6-(((R)-(4,4-Difluoro-1-hydroxycyclohexyl)(3-methylpyrazin-2-yl)methyl)thio)-2-(hydroxymethyl)-5-methoxy-4-(4-(3,4,5-trifluorophenyl)-1H-1,2,3-triazol-1-yl)tetrahydro-2H-pyran-3-ol [1,3-di-deoxy-1-((4,4-difluoro-1-hydroxy-cyclohexan-1-yl)-(3-(-methyl)pyrazin-2-yl)methyl-(R)-thio)-2-O-methyl-3-[4-(3,4,5-trifluorophenyl)-1H-1,2,3-triazol-1-yl]-b-D-galactopyranoside]] | 50 | 300 | – | – |
| CCc1c(C(S[C@@H]2O[C@H](CO)[C@H](O)[C@H](n3cc(-c4cc(F)c(F)c(F)c4)nn3)[C@H]2O)C2(O)CCC(F)(F)CC2)noc1C1CC1 (stereo partly drawn) [Example 2.44.130., (2S,3R,4S,5R,6R)-2-(((5-Cyclopropyl-4-ethylisoxazol-3-yl)(4,4-difluoro-1-hydroxycyclohexyl)methyl)thio)-6-(hydroxymethyl)-4-(4-(3,4,5-trifluorophenyl)-1H-1,2,3-triazol-1-yl)tetrahydro-2H-pyran-3,5-diol] | – | 130 | 60 | – |
| CCc1c([C@@H](S[C@@H]2O[C@H](CO)[C@H](O)[C@H](n3cc(-c4cc(F)c(F)c(F)c4)nn3)[C@H]2OC)C2(O)CCC(F)(F)CC2)noc1C1CC1 [Example 2.44.130R.I.] | – | 160 | – | 60 |
| CCc1c([C@H](S[C@@H]2O[C@H](CO)[C@H](O)[C@H](n3cc(-c4cc(F)c(F)c(F)c4)nn3)[C@H]2O)C2(O)CCC(F)(F)CC2)noc1C1CC1 [Example 2.44.130S., (2S,3R,4S,5R,6R)-2-(((S)-(5-Cyclopropyl-4-ethylisoxazol-3-yl)(4,4-difluoro-1-hydroxycyclohexyl)methyl)thio)-6-(hydroxymethyl)-4-(4-(3,4,5-trifluorophenyl)-1H-1,2,3-triazol-1-yl)tetrahydro-2H-pyran-3,5-diol] | – | 5650 | 1850 | – |
| CC(C)c1cccnc1C(S[C@@H]1O[C@H](CO)[C@H](O)[C@H](n2cc(-c3cc(F)c(F)c(F)c3)nn2)[C@H]1O)C1(O)CCC(F)(F)CC1 (stereo partly drawn) [Example 2.44.132., (2S,3R,4S,5R,6R)-2-(((4,4-Difluoro-1-hydroxycyclohexyl)(3-isopropylpyridin-2-yl)methyl)thio)-6-(hydroxymethyl)-4-(4-(3,4,5-trifluorophenyl)-1H-1,2,3-triazol-1-yl)tetrahydro-2H-pyran-3,5-diol] | – | 160 | 100 | – |
| CO[C@@H]1[C@@H](n2cc(-c3cc(F)c(F)c(F)c3)nn2)[C@@H](O)[C@@H](CO)O[C@H]1S[C@H](c1ncccc1C(C)C)C1(O)CCC(F)(F)CC1 [Example 2.44.132R.I., (2R,3R,4S,5R,6S)-6-(((R)-(4,4-Difluoro-1-hydroxycyclohexyl)(3-isopropylpyridin-2-yl)methyl)thio)-2-(hydroxymethyl)-5-methoxy-4-(4-(3,4,5-trifluorophenyl)-1H-1,2,3-triazol-1-yl)tetrahydro-2H-pyran-3-ol] | 120 | 100 | – | – |

Further compounds by falling IC50 [2], results first:

| IC50 [1, 3] [nM] | IC50 [2] [nM] | IC50 [1, 4] [nM] | IC50 [1, 5] [nM] | SMILES |
| --- | --- | --- | --- | --- |
| – | 26500 | 3350 | – | Cc1cccnc1[C@H](S[C@@H]1O[C@H](CO)[C@H](O)[C@H](n2cc(-c3cc(F)c(F)c(F)c3)nn2)[C@H]1O)C1(O)CCC(F)(F)CC1 [Example 2.44.126S., (2S,3R,4S,5R,6R)-2-(((S)-(4,4-Difluoro-1-hydroxycyclohexyl)(3-methylpyridin-2-yl)methyl)thio)-6-(hydroxymethyl)-4-(4-(3,4,5-trifluorophenyl)-1H-1,2,3-triazol-1-yl)tetrahydro-2H-pyran-3,5-diol] |
| – | 24300 | 980 | – | CCO[C@@H]1[C@@H](n2cc(-c3cc(F)c(F)c(F)c3)nn2)[C@@H](O)[C@@H](CO)O[C@H]1S[C@@H](c1ncccc1C)C1(O)CCC(F)(F)CC1 [Example 2.44.126S.II., (2R,3R,4S,5R,6S)-6-(((S)-(4,4-Difluoro-1-hydroxycyclohexyl)(3-methylpyridin-2-yl)methyl)thio)-5-ethoxy-2-(hydroxymethyl)-4-(4-(3,4,5-trifluorophenyl)-1H-1,2,3-triazol-1-yl)tetrahydro-2H-pyran-3-ol] |
| – | 13700 | 9740 | – | CC(C)Cc1c([C@H](S[C@@H]2O[C@H](CO)[C@H](O)[C@H](n3cc(-c4cc(F)c(F)c(F)c4)nn3)[C@H]2O)C2(O)CCC(F)(F)CC2)noc1C1CC1 [Example 2.44.131S., (2S,3R,4S,5R,6R)-2-(((S)-(5-Cyclopropyl-4-isobutylisoxazol-3-yl)(4,4-difluoro-1-hydroxycyclohexyl)methyl)thio)-6-(hydroxymethyl)-4-(4-(3,4,5-trifluorophenyl)-1H-1,2,3-triazol-1-yl)tetrahydro-2H-pyran-3,5-diol] |
| – | 6300 | 1480 | – | Cc1nccnc1[C@H](S[C@@H]1O[C@H](CO)[C@H](O)[C@H](n2cc(-c3cc(F)c(F)c(F)c3)nn2)[C@H]1O)C1(O)CCC(F)(F)CC1 [Example 2.44.129S., (2S,3R,4S,5R,6R)-2-(((S)-(4,4-Difluoro-1-hydroxycyclohexyl)(3-methylpyrazin-2-yl)methyl)thio)-6-(hydroxymethyl)-4-(4-(3,4,5-trifluorophenyl)-1H-1,2,3-triazol-1-yl)tetrahydro-2H-pyran-3,5-diol] |
| – | 350 | 90 | – | Cc1nccnc1C(S[C@@H]1O[C@H](CO)[C@H](O)[C@H](n2cc(-c3cc(F)c(F)c(F)c3)nn2)[C@H]1O)C1(O)CCC(F)(F)CC1 (stereo partly drawn) [Example 2.44.129., (2S,3R,4S,5R,6R)-2-(((4,4-Difluoro-1-hydroxycyclohexyl)(3-methylpyrazin-2-yl)methyl)thio)-6-(hydroxymethyl)-4-(4-(3,4,5-trifluorophenyl)-1H-1,2,3-triazol-1-yl)tetrahydro-2H-pyran-3,5-diol] |
| – | 200 | 30 | – | Cc1nccnc1[C@@H](S[C@@H]1O[C@H](CO)[C@H](O)[C@H](n2cc(-c3cc(F)c(F)c(F)c3)nn2)[C@H]1O)C1(O)CCC(F)(F)CC1 [Example 2.44.129R., (2S,3R,4S,5R,6R)-2-(((R)-(4,4-Difluoro-1-hydroxycyclohexyl)(3-methylpyrazin-2-yl)methyl)thio)-6-(hydroxymethyl)-4-(4-(3,4,5-trifluorophenyl)-1H-1,2,3-triazol-1-yl)tetrahydro-2H-pyran-3,5-diol] |
| – | 160 | 20 | – | CCc1c([C@@H](S[C@@H]2O[C@H](CO)[C@H](O)[C@H](n3cc(-c4cc(F)c(F)c(F)c4)nn3)[C@H]2O)C2(O)CCC(F)(F)CC2)noc1C1CC1 [Example 2.44.130R., (2S,3R,4S,5R,6R)-2-(((R)-(5-Cyclopropyl-4-ethylisoxazol-3-yl)(4,4-difluoro-1-hydroxycyclohexyl)methyl)thio)-6-(hydroxymethyl)-4-(4-(3,4,5-trifluorophenyl)-1H-1,2,3-triazol-1-yl)tetrahydro-2H-pyran-3,5-diol] |
| – | 100 | – | 130 | CO[C@@H]1[C@@H](n2cc(-c3cc(F)c(F)c(F)c3)nn2)[C@@H](O)[C@@H](CO)O[C@H]1S[C@H](c1noc(C2CC2)c1CC(C)C)C1(O)CCC(F)(F)CC1 [Example 2.44.131R.I., (2R,3R,4S,5R,6S)-6-(((R)-(5-Cyclopropyl-4-isobutylisoxazol-3-yl)(4,4-difluoro-1-hydroxycyclohexyl)methyl)thio)-2-(hydroxymethyl)-5-methoxy-4-(4-(3,4,5-trifluorophenyl)-1H-1,2,3-triazol-1-yl)tetrahydro-2H-pyran-3-ol] |
| – | 50 | 50 | – | CC(C)c1cccnc1[C@@H](S[C@@H]1O[C@H](CO)[C@H](O)[C@H](n2cc(-c3cc(F)c(F)c(F)c3)nn2)[C@H]1O)C1(O)CCC(F)(F)CC1 [Example 2.44.132R., (2S,3R,4S,5R,6R)-2-(((R)-(4,4-Difluoro-1-hydroxycyclohexyl)(3-isopropylpyridin-2-yl)methyl)thio)-6-(hydroxymethyl)-4-(4-(3,4,5-trifluorophenyl)-1H-1,2,3-triazol-1-yl)tetrahydro-2H-pyran-3,5-diol] |
